We go through 34 compounds from publication PMC10477886, “Adamantaniline Derivatives Target ATP5B to Inhibit Translation of Hypoxia Inducible Factor‐1α” (Advanced Science, 2023).

This experiment has as its system HIF‐1α transcriptional activity. Put plainly: dual‐luciferase assay (HRE‐Firefly Luciferase / renilla) of HIF‐1α transcriptional activity in HEK293T cells. The experiment is classed as cell-based, human. As to conditions: Homo sapiens, HEK-293T, mean ± s.d. (n = 3); for inhibition at 10 µM: incubation 24 h, HEK293T, read-out: Inhibition rate [%] @ 10 µM; for IC50: HEK293T dual‐luciferase. The text has this: To screen HIF‐1α inhibitors in a robust cell‐based assay, we optimized the dual‐luciferase assay with pLenti‐HIF‐1αP2A (P402A and P564A) instead of pLenti‐HIF‐1α in order to ensure the expression of HIF‐1α under normoxia condition. In the cell‐based assay, HEK293T cells were co‐transfected with pLenti‐HIF‐1αP2A, renilla, and hypoxia‐responsive element (HRE)‐Firefly Luciferase (Figure S1, Supporting Information). […] Three compounds were selected as the positive controls including two inhibitors (PX‐478 2HCl and BAY 87‐2243) and an activator (BAY 85‐3934) in the screening assay.
HEK293T cells were stably transfected with reporter plasmids pGMLV‐HRE‐LUC‐puromycin, pMSCV‐renilla‐hygromycin, and pLenti‐HIF‐1αP2A‐neomycin. Stable cell line constructed above, 293‐HIF‐1αP2A‐HRE‐Fluc‐Rluc, were seeded in 384‐well plates and cultured in DMEM with 10% FBS. The following day, the cells were pretreated with indicated chemical compounds from the National Compound Library of the Shanghai Institute of Materia Medica, Chinese Academy of Sciences by Mosquito HTS. The plate was then placed in an incubator chamber and incubated at 37 °C for 24 h. The ratio of firefly/renilla luciferase activity was determined by using the Envision (PerkinElmer).
Stable cell line 293‐HRE‐Fluc‐Rluc expressed luciferase and renilla or HEK293T cells transfected with indicated plasmids (pGL3‐HRE‐luciferase and pSV40‐renilla) were seeded in a 96‐well plate. The cells were co‐incubated with indicated compounds for 24 h and luciferase activities were detected in Microplate Reader (BioTek SYNEGRY H1) using the Dual Luciferase Reporter Assay System Kit (Promega, USA E1910) according to the manufacturer's instruction. The relative Luc activity was normalized by renilla activity. Three independent experiments were performed, and the calculated means and SDs are presented.

Structures are written as SMILES.

For orientation: inhibition means the share of the control response that was lost under treatment. Consider `O=C(Nc1ccc(C23CC4CC(CC(C4)C2)C3)cc1)c1ccccc1C(F)(F)F` [1‐3ad, N‐(4‐((3r,5r,7r)‐Adamantan‐1‐yl)Phenyl)−2‐(Trifluoromethyl)Benzamide], for which the inhibition at 10 µM stood at 31.3 ± 3.3%.

Turning to `O=C(Nc1ccc(C23CC4CC(CC(C4)C2)C3)cc1)c1cccc(C(F)(F)F)c1` [1‐3ae, N‐(4‐((3r,5r,7r)‐Adamantan‐1‐yl)Phenyl)−3‐(Trifluoromethyl)Nenzamide], the inhibition at 10 µM turned out to be 20.2 ± 1.5%.

For `O=C(Nc1ccc(C23CC4CC(CC(C4)C2)C3)cc1)c1ccc(C(F)(F)F)cc1` [1‐3af, N‐(4‐((3r,5r,7r)‐Adamantan‐1‐yl)Phenyl)−4‐(Trifluoromethyl)Benzamide], the inhibition at 10 µM turned out to be 37.9 ± 0.7%.

For the compound `O=C(Nc1ccc(C23CC4CC(CC(C4)C2)C3)cc1)c1ccc(N2CCOCC2)cc1` [1‐3ag, N‐(4‐((3r,5r,7r)‐Adamantan‐1‐yl)Phenyl)−4‐Morpholinobenzamide], the inhibition at 10 µM worked out at 41.6 ± 8.9%.

`O=C(Nc1ccc(C23CC4CC(CC(C4)C2)C3)cc1)c1ccc(N2CCCC2)cc1` [1‐3ah, N‐(4‐((3r,5r,7r)‐Adamantan‐1‐yl)Phenyl)−4‐(Pyrrolidin‐1‐yl)Benzamide]: the inhibition at 10 µM was found to be 66.5 ± 0.9%.

For the compound `CCCCCCOc1ccccc1C(=O)Nc1ccc(C23CC4CC(CC(C4)C2)C3)cc1` [1‐3ai, N‐(4‐((3r,5r,7r)‐Adamantan‐1‐yl)Phenyl)−2‐(Hexyloxy)Benzamide], the inhibition at 10 µM was found to be 28.2 ± 5.5%.

On to `CCCCCCOc1cccc(C(=O)Nc2ccc(C34CC5CC(CC(C5)C3)C4)cc2)c1` [1‐3aj, N‐(4‐((3r,5r,7r)‐Adamantan‐1‐yl)Phenyl)−3‐(Hexyloxy)Benzamide], for which the inhibition at 10 µM is 28.4 ± 6.9%.

As for `CCCCCCCCc1ccc(C(=O)Nc2ccc(C34CC5CC(CC(C5)C3)C4)cc2)cc1` [1‐3ak, N‐(4‐((1s,3s)‐Adamantan‐1‐yl)Phenyl)−4‐Octylbenzamide], the inhibition at 10 µM is 32.5 ± 7.2%.

For orientation: IC50 means the concentration that inhibits the measured activity by half. Higher therefore signals a need for much substance. Take `O=C(CCCCBr)Nc1cccc(C(=O)Nc2ccc(C34CC5CC(CC(C5)C3)C4)cc2)c1` [1‐3al, N‐(4‐((1s,3s)‐Adamantan‐1‐yl)Phenyl)−3‐(5‐Bromopentanamido)Benzamide]: the inhibition at 10 µM stood at 89.5 ± 1.1% and inhibition was half-maximal at 1000 ± 100 nM (IC50).

On to `CN1CCN(CCCCC(=O)Nc2cccc(C(=O)Nc3ccc(C45CC6CC(CC(C6)C4)C5)cc3)c2)CC1` [1‐3am, N‐(4‐((1s,3s)‐Adamantan‐1‐yl)Phenyl)−3‐(5‐(4‐Methylpiperazin‐1‐yl)Pentanamido)Benzamide], for which the inhibition at 10 µM turned out to be 86.4 ± 0.9% and the IC50 turned out to be 1300 ± 200 nM.

As for `O=C(CCCCN1CCOCC1)Nc1cccc(C(=O)Nc2ccc(C34CC5CC(CC(C5)C3)C4)cc2)c1` [1‐3an, N‐(4‐((1s,3s)‐Adamantan‐1‐yl)Phenyl)−3‐(5‐Morpholinopentanamido)Benzamide], the inhibition at 10 µM was determined as 93.4 ± 0.5% and half-maximal inhibition (IC50) required 370 ± 40 nM.

On to `O=C(CCCCBr)Nc1ccc(C(=O)Nc2ccc(C34CC5CC(CC(C5)C3)C4)cc2)cc1` [1‐3ao, N‐(4‐((3r,5r,7r)‐Adamantan‐1‐yl)Phenyl)−4‐(5‐Bromopentanamido)Benzamide], for which the inhibition at 10 µM came out at 82.9 ± 2.4% and the midpoint of inhibition, the IC50, lay at 2300 ± 500 nM.

As for `CN1CCN(CCCCC(=O)Nc2ccc(C(=O)Nc3ccc(C45CC6CC(CC(C6)C4)C5)cc3)cc2)CC1` [1‐3ap, N‐(4‐((3r,5r,7r)‐Adamantan‐1‐yl)Phenyl)−4‐(5‐(4‐Methylpiperazin‐1‐yl)Pentanamido)Benzamide], the inhibition at 10 µM amounted to 88.8 ± 0.2% and the concentration for half-maximal inhibition (IC50) was 1400 ± 500 nM.

Consider `O=C(CCCCN1CCOCC1)Nc1ccc(C(=O)Nc2ccc(C34CC5CC(CC(C5)C3)C4)cc2)cc1` [1‐3aq, N‐(4‐((3r,5r,7r)‐Adamantan‐1‐yl)Phenyl)−4‐(5‐Morpholinopentanamido)Benzamide], for which the inhibition at 10 µM came out at 69.5 ± 0.5%.

On to `CN(C)CCCC(=O)Nc1cccc(C(=O)Nc2ccc(C34CC5CC(CC(C5)C3)C4)cc2)c1` [1‐3ar, N‐(4‐((3r,5r,7r)‐Adamantan‐1‐yl)Phenyl)−3‐(4‐(Dimethylamino)Butanamido)Benzamide], for which the inhibition at 10 µM came out at 79.4 ± 1.8% and the IC50 came to 2100 ± 400 nM.

With `C[N+](C)(C)CCCC(=O)Nc1cccc(C(=O)Nc2ccc(C34CC5CC(CC(C5)C3)C4)cc2)c1` [1‐3as, 4‐((3‐((4‐((3r,5r,7r)‐Adamantan‐1‐yl)Phenyl)Carbamoyl)Phenyl)Amino)‐N,N,N‐Trimethyl‐4‐Oxobutan‐1‐Aminium], the inhibition at 10 µM came out at 76.4 ± 1.3% and the IC50 is 2500 ± 700 nM.

Turning to `CN(C)CCCC(=O)Nc1ccc(C(=O)Nc2ccc(C34CC5CC(CC(C5)C3)C4)cc2)cc1` [1‐3at, N‐(4‐((3r,5r,7r)‐Adamantan‐1‐yl)Phenyl)−4‐(4‐(Dimethylamino)Butanamido)Benzamide], the inhibition at 10 µM is 90 ± 1.7% and the IC50 was determined as 940 ± 20 nM.

Consider `O=C(Nc1ccc(C23CC4CC(CC(C4)C2)C3)cc1)c1ccccc1Cl` [1‐3b, N‐(4‐((3r,5r,7r)‐Adamantan‐1‐yl)Phenyl)−2‐Chlorobenzamide], for which the inhibition at 10 µM worked out at 58.4 ± 1.5%.

As for `O=C(Nc1ccc(C23CC4CC(CC(C4)C2)C3)cc1)c1ccc(Cl)cc1` [1‐3c, N‐(4‐((3r,5r,7r)‐Adamantan‐1‐yl)Phenyl)−4‐Chlorobenzamide], the inhibition at 10 µM was determined as 63.4 ± 5.4%.

Turning to `O=C(Nc1ccc(C23CC4CC(CC(C4)C2)C3)cc1)c1ccccc1Br` [1‐3d, N‐(4‐((3r,5r,7r)‐Adamantan‐1‐yl)Phenyl)−2‐Bromobenzamide], the inhibition at 10 µM worked out at 52.3 ± 3.1%.

Consider `O=C(Nc1ccc(C23CC4CC(CC(C4)C2)C3)cc1)c1cccc(Br)c1` [1‐3e, N‐(4‐((3r,5r,7r)‐Adamantan‐1‐yl)Phenyl)−3‐Bromobenzamide], for which the inhibition at 10 µM turned out to be 86.3 ± 0.2% and the IC50 was 1400 ± 300 nM.

For `O=C(Nc1ccc(C23CC4CC(CC(C4)C2)C3)cc1)c1ccc(Br)cc1` [1‐3f, N‐(4‐((3r,5r,7r)‐Adamantan‐1‐yl)Phenyl)−4‐Bromobenzamide], the inhibition at 10 µM is 67.1 ± 5.1%.

With `COc1ccccc1C(=O)Nc1ccc(C23CC4CC(CC(C4)C2)C3)cc1` [1‐3g, N‐(4‐((3r,5r,7r)‐Adamantan‐1‐yl)Phenyl)−2‐Methoxybenzamide], the inhibition at 10 µM was 40.2 ± 2.1%.

With `COc1cccc(C(=O)Nc2ccc(C34CC5CC(CC(C5)C3)C4)cc2)c1` [1‐3h, N‐(4‐((3r,5r,7r)‐Adamantan‐1‐yl)Phenyl)−3‐Methoxybenzamide], the inhibition at 10 µM is 92.1 ± 0.6% and 820 ± 130 nM corresponded to half-maximal inhibition (IC50).

Turning to `COc1ccc(C(=O)Nc2ccc(C34CC5CC(CC(C5)C3)C4)cc2)cc1` [1‐3i, N‐(4‐((3r,5r,7r)‐Adamantan‐1‐yl)Phenyl)−4‐Methoxybenzamide], the inhibition at 10 µM came out at 86 ± 1.4% and the IC50 was 1600 ± 300 nM.

With `N#Cc1ccccc1C(=O)Nc1ccc(C23CC4CC(CC(C4)C2)C3)cc1` [1‐3j, N‐(4‐((3r,5r,7r)‐Adamantan‐1‐yl)Phenyl)−2‐Cyanobenzamide], the inhibition at 10 µM is 41.8 ± 3.4%.

For `N#Cc1cccc(C(=O)Nc2ccc(C34CC5CC(CC(C5)C3)C4)cc2)c1` [1‐3k, N‐(4‐((3r,5r,7r)‐Adamantan‐1‐yl)Phenyl)−3‐Cyanobenzamide], the inhibition at 10 µM worked out at 67.4 ± 3.8%.

In the case of `N#Cc1ccc(C(=O)Nc2ccc(C34CC5CC(CC(C5)C3)C4)cc2)cc1` [1‐3l, N‐(4‐((3r,5r,7r)‐Adamantan‐1‐yl)Phenyl)−4‐Cyanobenzamide], the inhibition at 10 µM is 61.2 ± 5.5%.

For `O=C(Nc1ccc(C23CC4CC(CC(C4)C2)C3)cc1)c1ccccc1O` [1‐3m, N‐(4‐((3r,5r,7r)‐Adamantan‐1‐yl)Phenyl)−2‐Hydroxybenzamide], the inhibition at 10 µM is 88.4 ± 0.2% and the concentration for half-maximal inhibition (IC50) was 510 ± 20 nM.

In the case of `O=C(Nc1ccc(C23CC4CC(CC(C4)C2)C3)cc1)c1ccc(O)cc1` [1‐3o, N‐(4‐((3r,5r,7r)‐Adamantan‐1‐yl)Phenyl)−4‐Hydroxybenzamide], the inhibition at 10 µM was found to be 96.4 ± 0.2% and the IC50 is 53 ± 8 nM.

For the compound `CC(C)(C)OC(=O)Nc1ccccc1C(=O)Nc1ccc(C23CC4CC(CC(C4)C2)C3)cc1` [1‐3p, Tert‐Butyl 2‐(2‐((4‐((3r,5r,7r)‐Adamantan‐1‐yl)Phenyl)Carbamoyl)Phenyl)Carbamate], the inhibition at 10 µM was found to be 40.3 ± 3.2%.

In the case of `CC(C)(C)OC(=O)Nc1cccc(C(=O)Nc2ccc(C34CC5CC(CC(C5)C3)C4)cc2)c1` [1‐3q, Tert‐Butyl (3‐((4‐((3r,5r,7r)‐Adamantan‐1‐yl)Phenyl)Carbamoyl)Phenyl)Carbamate], the inhibition at 10 µM worked out at 75.5 ± 0.3% and half-maximal inhibition (IC50) required 3500 ± 200 nM.

With `CC(C)(C)OC(=O)Nc1ccc(C(=O)Nc2ccc(C34CC5CC(CC(C5)C3)C4)cc2)cc1` [1‐3r, Tert‐Butyl (4‐((4‐((3r,5r,7r)‐Adamantan‐1‐yl)Phenyl)Carbamoyl)Phenyl)Carbamate], the inhibition at 10 µM came out at 54.6 ± 1.6%.

Regarding `Nc1ccccc1C(=O)Nc1ccc(C23CC4CC(CC(C4)C2)C3)cc1` [1‐3s, N‐(4‐((3r,5r,7r)‐Adamantan‐1‐yl)Phenyl)−2‐Aminobenzamide], the inhibition at 10 µM is 90.4 ± 1.7% and the half-inhibitory concentration (IC50) is 540 ± 20 nM.
